Patent US20240390369A1, “METHODS FOR DETERMINING RESPONSIVENESS TO TYK2 INHIBITORS” (Bristol-Myers Squibb Company, priority 2021, published 2024)

Tested on: patients with psoriatic arthritis
Experiment: Phase 2 trial in psoriatic arthritis: PASI75 response at week 16
Type: in vivo, human
Conditions: for Odds Ratio for PASI75 response / Odds Ratio (OR) for PASI75 response / Interaction Term for PASI75 response (ratio of odds ratios): week 16
Experimental: In a double-blind Phase 2 trial, 203 patients with psoriatic arthritis were randomized into three groups: deucravacitinib 6 mg once daily (N=70), deucravacitinib 12 mg once daily (N=67), or placebo (N=66). All subjects had active psoriatic arthritis according to the Classification Criteria for Psoriatic Arthritis (CASPAR); for active disease, these criteria required ≥3 tender joint count, ≥3 swollen joint count, and a C-reactive protein level above 3 mg/L. Other inclusion criteria included the following: presence of at least one plaque psoriasis lesion, and prior treatment failure with a non-biologic disease modifying anti-rheumatic drug, a non-steroidal anti-inflammatory drug, or a steroid. With respect to treatment history, approximately 70% of subjects had not received prior treatment with a biologic and were biologic naïve, while up to 30% of subjects had failed or had been intolerant to one TNF-inhibitor (TNF=Tumor necrosis factor, also known as TNFα). Randomization was stratified by prior TNF-inhibitor use (experienced/naïve) and body weight (<90 kg and ≥90 kg).
Clinical measures included the Psoriasis […] (PASI) score for skin psoriasis, American College of Rheumatology 20 (ACR20) response, Psoriatic Arthritis Disease Activity Score (PASDAS), Health Assessment Questionnaire-Disability Index (HAQ-DI), and Disease Activity Score 28 CRP (DAS28). To evaluate the predictive value of different protein measurements for the clinical response to deucravacitinib, baseline protein concentrations for responders and non-responders, as defined by ACR20 or PASI75 at week 16, were compared for each arm (placebo, 6 mg deucravacitinib once-daily, and 12 mg deucravacitinib once-daily).
In addition, a logistic regression model was fit, to determine whether baseline disease score (dichotomized by the median baseline score, into baseline score high and baseline score low groups) was associated with response status. The model generated an odds ratio for each dosed arm versus placebo, in baseline score high and baseline score low groups.
Boxplots for baseline protein level by response were generated with a horizontal line indicating the median protein level at baseline. For each treatment arm, a two-sample t-test was performed to test whether mean baseline serum protein level was different in responders versus non-responders. A Wilcoxon rank sum test (Mann-Whitney U test) was also performed to evaluate the difference in median serum protein level between responders and non-responders. Further, barplots of ACR20 and PASI75 response rate at week 16 for each treatment arm were generated for all subjects (protein level high and protein level low subjects, dichotomized according to median baseline level). Line plots of ACR20 and PASI75 response rate over time for each treatment arm were generated for protein level high and protein level low groups. Logistic regression models were also fit to evaluate associations between baseline protein levels and clinical outcome.
For certain analyses described herein, patients were dichotomized by median values (e.g., of the proteins listed above or other measures) into “high” and “low” groups, such that the high group had values above the median and the low group had values less than or equal to the median.
In addition, logistic regression models were fit for response measures ACR20 and PASI75, to generate the odds ratio of each of the deucravacitinib treatment arms versus placebo, in BD2-high and BD2-low groups. The following logistic regression models were used: • For ACR20 response status: ACR20 (Y/N)=treatment arm+BD2 group+treatment arm*BD2 group+TNF-inhibitor use+baseline weight (continuous). • For PASI75 response status: PASI75 (Y/N)=treatment arm+BD2 group+treatment arm*BD2 group+TNF-inhibitor use+baseline weight (continuous). […]

`[2H]C([2H])([2H])NC(=O)c1nnc(NC(=O)C2CC2)cc1Nc1cccc(-c2ncn(C)n2)c1OC` [deucravacitinib, 6-(cyclopropanecarboxamido)-4-((2-methoxy-3-(1-methyl-1H-1,2,4-triazol-3-yl)phenyl)amino)-N-(methyl-d3)pyridazine-3-carboxamide] was tested, and the “Odds Ratio, PASI75 response status” value (CRP-high-PASI-high, 12 mg QD vs placebo) was 17.226, the “Odds Ratio, PASI75 response status” value (CRP-high-PASI-low, 6 mg QD vs placebo) was 0.710 and the “Odds Ratio, PASI75 response status” value (CRP-high-PASI-low, 12 mg QD vs placebo) was 5.115. For the same compound, the “Odds Ratio, PASI75 response status” value (CRP-high, 6 mg QD vs placebo, adjusted for baseline PASI score) was 3.82, the “Odds Ratio, PASI75 response status” value (CRP-high, 12 mg QD vs placebo, adjusted for baseline PASI score) was 12.05 and the “Odds Ratio, PASI75 response status” value (CRP-low-PASI-high, 6 mg QD vs placebo) was 2.470. For the same compound, the “Odds Ratio, PASI75 response status” value (CRP-low-PASI-high, 12 mg QD vs placebo) was 16.368, the “Odds Ratio, PASI75 response status” value (CRP-low-PASI-low, 6 mg QD vs placebo) was 1.866 and the “Odds Ratio, PASI75 response status” value (CRP-low-PASI-low, 12 mg QD vs placebo) was 1.197. The “Odds Ratio, PASI75 response status” value (CRP-low, 6 mg QD vs placebo, adjusted for baseline PASI score) was 2.29, the “Odds Ratio, PASI75 response status” value (CRP-low, 12 mg QD vs placebo, adjusted for baseline PASI score) was 3.79 and the “Odds Ratio for PASI75 response” value (IL-17A high (baseline above median 0.575 ng/L), 6 mg QD vs placebo) was 12.643. For the same compound, the “Odds Ratio for PASI75 response” value (IL-17A high (baseline above median 0.575 ng/L), 12 mg QD vs placebo) was 20.916, the “PASI75 response rate at week 16” value (IL-17A high group, 6 mg QD and 12 mg QD vs placebo (FIG. 21)) was “higher in both 6 mg QD and 12 mg QD treatment arms compared to placebo” and the “Odds Ratio, PASI75 response status” value (IL-17A high-PASI high, 6 mg QD vs placebo) was 12.355. For the same compound, the “Odds Ratio, PASI75 response status” value (IL-17A high-PASI high, 12 mg QD vs placebo) was 15.937, the “Odds Ratio, PASI75 response status” value (IL-17A high-PASI low, 6 mg QD vs placebo) was 13.247 and the “Odds Ratio, PASI75 response status” value (IL-17A high-PASI low, 12 mg QD vs placebo) was 30.955. For the same compound, the “Odds Ratio, PASI75 response status” value (IL-17A high, 6 mg QD vs placebo, adjusted for baseline PASI score) was 13.452, the “Odds Ratio, PASI75 response status” value (IL-17A high, 12 mg QD vs placebo, adjusted for baseline PASI score) was 23.963 and the “Odds Ratio for PASI75 response” value (IL-17A high, treatment arms combined vs placebo) was 15.763. The “Odds Ratio, PASI75 response status” value (IL-17A low-PASI high, 6 mg QD vs placebo) was 3.005, the “Odds Ratio, PASI75 response status” value (IL-17A low-PASI high, 12 mg QD vs placebo) was 20.919 and the “Odds Ratio, PASI75 response status” value (IL-17A low-PASI low, 6 mg QD vs placebo) was 0.188. For the same compound, the “Odds Ratio, PASI75 response status” value (IL-17A low-PASI low, 12 mg QD vs placebo) was 0.415, the “Odds Ratio, PASI75 response status” value (IL-17A low, 6 mg QD vs placebo, adjusted for baseline PASI score) was 0.588 and the “Odds Ratio for PASI75 response” value (IL-17A low, 6 mg QD vs placebo) was 0.553. The “Odds Ratio, PASI75 response status” value (IL-17A low, 12 mg QD vs placebo, adjusted for baseline PASI score) was 1.812, the “Odds Ratio for PASI75 response” value (IL-17A low, 12 mg QD vs placebo) was 1.730 and the “Odds Ratio for PASI75 response” value (IL-17A low, treatment arms combined vs placebo) was 1.014. The “PASI75 response rate at week 16” value (IL-19-high group, 6 mg QD and 12 mg QD vs placebo arm (FIG. 14)) was “higher in both 6 mg QD and 12 mg QD treatment arms compared to the response rate in the placebo arm”, the “Odds Ratio (OR) for PASI75 response” value (IL-19-low-PASI high, 6 mg QD vs placebo) was 1.244 and the “Odds Ratio (OR) for PASI75 response” value (IL-19-low-PASI high, 12 mg QD vs placebo) was 2.845. For the same compound, the “Odds Ratio (OR) for PASI75 response” value (IL-19-low-PASI low, 6 mg QD vs placebo) was 0.321, the “Odds Ratio (OR) for PASI75 response” value (IL-19-low-PASI low, 12 mg QD vs placebo) was 0.380 and the “Odds Ratio (OR) for PASI75 response” value (IL-19 low, 6 mg QD vs placebo) was 0.443. The “Odds Ratio (OR) for PASI75 response” value (IL-19 low, 12 mg QD vs placebo) was 0.842, the “Odds Ratio for PASI75 response” value (IL-19 low, treatment arms combined vs placebo) was 6.284 and the “Interaction Term for PASI75 response (ratio of odds ratios)” value (shortened to “Interaction Term … (ratio of odds ratios)”) (adjusted for baseline PASI score, 6 mg QD vs placebo: BD2-high versus BD2-low) was 13.742. For the same compound, the “Interaction Term … (ratio of odds ratios)” value (adjusted for baseline PASI score, 12 mg QD vs placebo: BD2-high versus BD2-low) was 19.455, the “Odds Ratio for PASI75 response” value (adjusted for baseline PASI score, All patients, 6 mg QD vs placebo) was 3.052 and the “Odds Ratio for PASI75 response” value (adjusted for baseline PASI score, All patients, 12 mg QD vs placebo) was 6.494. The “Odds Ratio for PASI75 response” value (adjusted for baseline PASI score, BD2-high, 6 mg QD vs placebo) was 13.559, the “Odds Ratio for PASI75 response” value (adjusted for baseline PASI score, BD2-high, 12 mg QD vs placebo) was 34.074 and the “Odds Ratio for PASI75 response” value (adjusted for baseline PASI score, BD2-low, 6 mg QD vs placebo) was 0.987. For the same compound, the “Odds Ratio for PASI75 response” value (adjusted for baseline PASI score, BD2-low, 12 mg QD vs placebo) was 1.751, the “Odds Ratio (OR) for PASI75 response” value (adjusted for baseline PASI score, IL-19 low, 6 mg QD vs placebo) was 0.476 and the “Odds Ratio (OR) for PASI75 response” value (adjusted for baseline PASI score, IL-19 low, 12 mg QD vs placebo) was 0.896. For the same compound, the “PASI75 response rate at week 16” value (both CRP-high and CRP-low groups, 6 mg, 12 mg, placebo arms (FIG. 38)) was “the response rate was higher in the 6 mg deucravacitinib treatment arm than in the placebo arm, and the response rate was even higher in the 12 mg deucravacitinib treatment arm than in the 6 mg treatment arm”, the “Interaction Term … (ratio of odds ratios)” value (treatment arms combined vs placebo: BD2 high versus BD2 low) was 12.100 and the “Interaction Term: treatment arm*CRP group, PASI75” value (treatment arms combined vs placebo: CRP high versus CRP low) was 1.903. The “Interaction Term … (ratio of odds ratios)” value (treatment arms combined vs placebo: IL-17A high versus IL-17A low) was 15.541.
